Assay results: patent publication EP0583821A1, “Atriopeptins, guanylate cyclase activators, and phosphodiesterase inhibitors as treatment for glaucoma, hydrocephalus and cerebral edema (cranial fluid volume dysfunction)” (THE GENERAL HOSPITAL CORPORATION, priority 1987, dated 1988)

Key:
guanylate cyclase [1] = target: T1, guanylate cyclase (Oryctolagus cuniculus, UniProt G1TXB5); assay: Guanylate cyclase in membranes of ventral superior sagittal dural sinus (arachnoid villi); type: biochemical, pig or rabbit; conditions: small stimulation only at high concentrations; 4 min
T1 sequence (G1TXB5 28-1056): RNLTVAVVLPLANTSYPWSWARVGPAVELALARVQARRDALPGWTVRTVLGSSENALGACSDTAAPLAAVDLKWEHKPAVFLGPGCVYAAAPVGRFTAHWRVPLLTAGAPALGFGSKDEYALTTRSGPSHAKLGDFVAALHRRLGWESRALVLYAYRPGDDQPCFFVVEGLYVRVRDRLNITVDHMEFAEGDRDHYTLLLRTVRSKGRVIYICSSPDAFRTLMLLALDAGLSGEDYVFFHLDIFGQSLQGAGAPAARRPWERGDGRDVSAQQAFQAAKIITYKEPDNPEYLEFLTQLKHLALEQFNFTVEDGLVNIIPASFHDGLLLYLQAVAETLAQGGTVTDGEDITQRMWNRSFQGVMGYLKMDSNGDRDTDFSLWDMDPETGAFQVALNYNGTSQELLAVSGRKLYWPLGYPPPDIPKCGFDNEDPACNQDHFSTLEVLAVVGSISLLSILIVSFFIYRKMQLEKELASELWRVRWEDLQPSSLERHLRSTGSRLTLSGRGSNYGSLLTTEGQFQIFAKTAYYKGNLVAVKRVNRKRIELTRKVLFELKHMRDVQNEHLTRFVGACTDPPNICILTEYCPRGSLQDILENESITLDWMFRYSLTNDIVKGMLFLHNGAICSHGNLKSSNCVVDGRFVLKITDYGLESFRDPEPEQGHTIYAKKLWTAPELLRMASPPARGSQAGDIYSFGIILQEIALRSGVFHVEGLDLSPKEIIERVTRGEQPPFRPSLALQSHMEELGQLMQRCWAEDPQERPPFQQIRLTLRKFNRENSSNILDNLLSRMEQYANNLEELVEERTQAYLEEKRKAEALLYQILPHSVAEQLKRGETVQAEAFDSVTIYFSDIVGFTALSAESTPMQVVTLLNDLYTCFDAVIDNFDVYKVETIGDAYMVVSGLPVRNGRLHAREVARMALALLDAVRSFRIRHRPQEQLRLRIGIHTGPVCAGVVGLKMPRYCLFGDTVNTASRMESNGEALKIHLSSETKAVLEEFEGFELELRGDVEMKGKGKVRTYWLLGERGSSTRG
Description: (§1) The effect of rANP on membrane-bound guanylate cyclase and adenylate cyclase activity in various brain-barrier tissues and tissue fractions from rabbit was compared with its activity in cerebrum and cerebellum. Guanylate cyclase was measured as the rate of cyclic GMP formation by modifications of the technique of Waldman et al., supra, incorporated herein by reference. Briefly, tissues were homogenized (10 mg wet weight per milliliter) in 50 mM tris-HCl, pH 8.0, 1 mM EDTA, 1 mM dithiothreitol, and 250 mM sucrose and centrifuged at 100,000g to obtain a P1 pellet. Reaction tubes contained (in 0.3 ml), 50 mM tris, pH 7.6, 6 mM MnCl₂, 0.5 mM 3-isobutyl, 1-methylxanthine (IBMX), 10 mM theophylline, 3 mM GTP, hormone (in 0.03 ml containing 2.5 mM ascorbic acid and 0.1% bovine serum albumin), and 0.06 ml of P1 fraction (40 to 60 ug of protein). The reaction (4 minutes at 30°C) was started by addition of GTP and terminated by addition of 0.3 ml of 150 mM sodium acetate (pH 4.0) and boiling for 3 minutes. Cyclic GMP formed was subsequently measured by radioimmunoassay as described in example 6, infra. Under these conditions, guanylate cyclase activity was linear with time and tissue concentration. Adenylate cyclase activity in P1 fractions was measured according to the method described by Nathanson, et al., Science; 204:843 (1979); Mol. Pharmacol. 18:199 (1980), see Figure 1C . […] Neurosci. […]

guanylate cyclase [2] = assay: Guanylate cyclase in pia-arachnoid preparation; type: biochemical, rabbit
Description: as §1

rabbits = assay: Peripheral blood pressure after intravenous injection; type: in vivo, rabbit; conditions: intravenous injection of similar doses
guanylate cyclase [3] = target: T1, guanylate cyclase; assay: Atriopeptin-activated guanylate cyclase in kidney membrane (P1) fractions; type: biochemical, rabbit; design: tissues were homogenized (10 mg wet weight per milliliter); from tissue; host or cells: rabbit cerebral microvessels, choroid plexus, kidney, ciliary process, pia-arachnoid, cerebellum; 100,000 g P1 pellet; conditions: mean ± range of duplicate determinations
Description: The effect of rANP on membrane-bound guanylate cyclase and adenylate cyclase activity in various brain-barrier tissues and tissue fractions from rabbit was compared with its activity in cerebrum and cerebellum. Guanylate cyclase was measured as the rate of cyclic GMP formation by modifications of the technique of Waldman et al., supra, incorporated herein by reference. Briefly, tissues were homogenized (10 mg wet weight per milliliter) in 50 mM tris-HCl, pH 8.0, 1 mM EDTA, 1 mM dithiothreitol, and 250 mM sucrose and centrifuged at 100,000g to obtain a P1 pellet. Reaction tubes contained (in 0.3 ml), 50 mM tris, pH 7.6, 6 mM MnCl₂, 0.5 mM 3-isobutyl, 1-methylxanthine (IBMX), 10 mM theophylline, 3 mM GTP, hormone (in 0.03 ml containing 2.5 mM ascorbic acid and 0.1% bovine serum albumin), and 0.06 ml of P1 fraction (40 to 60 ug of protein). The reaction (4 minutes at 30°C) was started by addition of GTP and terminated by addition of 0.3 ml of 150 mM sodium acetate (pH 4.0) and boiling for 3 minutes. Cyclic GMP formed was subsequently measured by radioimmunoassay as described in example 6, infra. Under these conditions, guanylate cyclase activity was linear with time and tissue concentration. Adenylate cyclase activity in P1 fractions was measured according to the method described by Nathanson, et al., Science; 204:843 (1979); Mol. Pharmacol. 18:199 (1980), see Figure 1C . […] Neurosci. Abstr., 10, 899 (1984); Nathanson, et al., Soc. Neurosci. Abstr., 12, 1257 (1986), incorporated herein by reference, but with a lower concentration (0.025%) of trypsin and a rotating tissue tumbler which allowed cleaner fractionation of epithelial cells from erythrocytes and vascular components.
Ciliary process tips were obtained from male, 3-4 kg, New Zealand white rabbits, immediately following sacrifice with an overdose of ether, as described in Nathanson, Invest. Ophthal. Vis. Sci., 21:7981 (1982). […]
Atriopeptin-activated guanylate cyclase activity was measured as the rate of conversion of GTP to cyclic GMP. […]

Ser-Leu-Arg-Arg-atriopeptin III (APIII) [rANP 1-28]
Ka (guanylate cyclase [1]): > 1000 nM
degree of enzyme stimulation (guanylate cyclase [2]): 15%
peripheral blood pressure (rabbits): no change
Vmax Stimulation (%) of Guanylate Cyclase Kidney (guanylate cyclase [3]): 129 ± 25%

rANP 13-28 (DRIGAQSGLGCNSFRY; Atrial natriuretic peptide; UniProt P01161 135-150, looked up, fragment)
Vmax Stimulation (%) of Guanylate Cyclase Kidney (guanylate cyclase [3]): 54 ± 4%
